What all share (assay): relative viability (nuclei count vs DMSO), 5 days (fraction); higher = more cells survive
Compound in assay [1]: C[C@@]1(C(=O)Nc2ccc(F)nc2)CCCN1c1nc(Nc2cc(C3CC3)n[nH]2)c2cccn2n1 + C[C@]1(O)C[C@@H](c2nc(-c3ccc4ccc(-c5ccccc5)nc4c3)c3c(N)nccn32)C1 [Linsitinib] (partner 1 µM)
The essentials: (§1)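 One day after seeding in 1536-well plates, lung cancer cell lines were dosed by pin tool. Dosing was either single-drug or a fixed anchor-drug dose plus five library-drug doses (not always all listed) in √10 steps. After 5 days, nuclei were stained in one fix-and-stain step and counted on 4× images, and relative viability is the nuclei count of treated wells over that of vehicle wells, given as the median of duplicate plates.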

Compound in assay [2]: CC1(C)CNc2cc(NC(=O)c3cccnc3NCc3ccncc3)ccc21 [Motesanib] + N=C(N)NC(=N)NCCc1ccccc1 [Phenformin] (partner 250 µM)
The essentials:
as §1

Compound in assay [3]: CC1(C)CNc2cc(NC(=O)c3cccnc3NCc3ccncc3)ccc21 [Motesanib] + CCNC(=O)c1noc(-c2cc(C(C)C)c(O)cc2O)c1-c1ccc(CN2CCOCC2)cc1 [Luminespib] (partner 0.01 µM)
The essentials:
as §1

Compound in assay [4]: CC1(C)CNc2cc(NC(=O)c3cccnc3NCc3ccncc3)ccc21 [Motesanib] + Nc1ncn([C@H]2C[C@H](O)[C@@H](CO)O2)c(=O)n1 [Decitabine] (partner 2 µM)
The essentials:
as §1

From the supplement of paper PMC10307832 come the findings set out here.

Take NCI-H1395: the relative viability in assay [1] (first compound 0.04 µM) turned out to be 1.3; in assay [1] (first compound 0.1265 µM) it was 0.737; in assay [1] (first compound 0.4 µM) it was 1.01; in assay [1] (first compound 1.265 µM), 0.947; in assay [2] (first compound 0.01 µM) it was 0.437; in assay [2] (first compound 0.03162 µM), 0.431. Further, the relative viability in assay [2] (first compound 0.1 µM) was found to be 0.406; in assay [2] (first compound 0.3162 µM) it was 0.543; in assay [2] (first compound 1 µM) it was 0.433; in assay [3] (first compound 0.01 µM), 0.662; in assay [3] (first compound 0.03162 µM), 0.665; in assay [3] (first compound 0.1 µM), 0.65. Further, the relative viability in assay [3] (first compound 0.3162 µM) is 0.876; in assay [3] (first compound 1 µM), 0.866; in assay [4] (first compound 0.01 µM) it was 0.765; in assay [4] (first compound 0.03162 µM), 0.698; in assay [4] (first compound 0.1 µM) it was 0.795; in assay [4] (first compound 0.3162 µM) it was 0.739. For the same cell line, the relative viability in assay [4] (first compound 1 µM) came out at 0.791.

As for NCI-H358, the relative viability in assay [1] (first compound 0.04 µM) is 0.654; in assay [1] (first compound 0.1265 µM), 0.663; in assay [1] (first compound 0.4 µM), 0.494; in assay [1] (first compound 1.265 µM), 0.474; in assay [2] (first compound 0.01 µM), 0.384; in assay [2] (first compound 0.03162 µM) it was 0.414. The relative viability in assay [2] (first compound 0.1 µM) worked out at 0.331; in assay [2] (first compound 0.3162 µM), 0.418; in assay [2] (first compound 1 µM), 0.468; in assay [3] (first compound 0.01 µM), 0.317; in assay [3] (first compound 0.03162 µM) it was 0.333; in assay [3] (first compound 0.1 µM) it was 0.402. Further, the relative viability in assay [3] (first compound 0.3162 µM) amounted to 0.479; in assay [3] (first compound 1 µM), 0.369; in assay [4] (first compound 0.01 µM) it was 0.197; in assay [4] (first compound 0.03162 µM), 0.261; in assay [4] (first compound 0.1 µM), 0.257; in assay [4] (first compound 0.3162 µM), 0.314. The relative viability in assay [4] (first compound 1 µM) was 0.276.

Regarding NCI-H838, the relative viability in assay [1] (first compound 0.04 µM) is 1.09; in assay [1] (first compound 0.1265 µM) it was 0.848; in assay [1] (first compound 0.4 µM) it was 0.753; in assay [1] (first compound 1.265 µM), 0.874; in assay [2] (first compound 0.01 µM), 0.547; in assay [2] (first compound 0.03162 µM) it was 0.667. Besides, the relative viability was found to be 0.514 in assay [2] (first compound 0.1 µM); 0.745 in assay [2] (first compound 0.3162 µM); 0.656 in assay [2] (first compound 1 µM); 0.316 in assay [3] (first compound 0.01 µM); 0.295 in assay [3] (first compound 0.03162 µM); 0.355 in assay [3] (first compound 0.1 µM). For the same cell line, the relative viability in assay [3] (first compound 0.3162 µM) is 0.286; in assay [3] (first compound 1 µM) it was 0.216; in assay [4] (first compound 0.01 µM), 0.484; in assay [4] (first compound 0.03162 µM), 0.49; in assay [4] (first compound 0.1 µM) it was 0.541; in assay [4] (first compound 0.3162 µM) it was 0.572. Moreover, in assay [4] (first compound 1 µM), the relative viability is 0.582.
